In brackets after ≈: the same amount, converted by molar mass. Where two headings read alike, the source gives them in different places. Ends that are not written are not given here.
Legend:
[1] = test system: Staphylococcus aureus ATCC 25923; type: cell-based
Experimental: (§1) The MIC was determined using a microdilution assay. In brief, bacterial strains were incubated for 18 to 24 h at 37 °C in an Müller-Hinton (MH) broth until an optical density of 0.15 to 0.30 (620 nm) was obtained. Next, 90 μL of Mueller-Hinton broth (MHB) was mixed with […], and serial dilutions (200, 100, 50, 25, 12.5 and 6.2) were prepared in 96-well microplates (final volume 100 μL/well). Then, 10 μL of inoculum (2 × 10^6 CFU/mL) was added to each well. The final volume in each well was 100 μL. Then they were incubated for 24 h at 37 °C; the absorbance at 620 nm was measured using an Asys Expert Plus ELISA reader. For determining the MBC, a small sample was taken from each well using an inoculation loop, and then was spread on MH agar plates and incubated overnight at 37 °C. MBC was considered on the plate which presented no bacterial growth. Each of these tests was performed twice (n = 2).

[2] = test system: Escherichia coli ATCC 25922; type: cell-based
Experimental: as §1

[3] = test system: S. aureus 42D; conditions: cited from earlier work
Excerpt: (§2) Please note that in this sequence some C-terminal positions have been changed compared to LfcinB 17–31 [38, 48]. The peptide LfcinB 17–31 has been studied for its relative structure and antibacterial activit ...

[4] = test system: E. coli ML35; conditions: cited from earlier work
Excerpt: as §2

[5] = test system: S. aureus; set-up: method as in PMID 8980754; conditions: cited from earlier work
[6] = test system: E. coli L361; set-up: method as in PMID 8980754; conditions: cited from earlier work
[7] = test system: E. coli O9; set-up: method as in PMID 8980754; conditions: cited from earlier work
[8] = test system: S. aureus; conditions: cited from earlier work
Excerpt: as §2

[9] = test system: E coli; conditions: cited from earlier work
Excerpt: as §2

[10] = microdilution, Mueller-Hinton broth, 24 h at 37 °C, absorbance 620 nm, n = 2
[11] = sample of each well spread on MH agar, overnight 37 °C, no bacterial growth, n = 2

| Compound | MBC S. aureus ATCC 25923 ([1]; ATCC 25923) [µM] | MIC S. aureus ATCC 25923 ([1]; ATCC 25923, 24 h) [µM] | MBC E. coli ATCC 25922 ([2]; ATCC 25922) [µM] | MIC E. coli ATCC 25922 ([2]; ATCC 25922, 24 h) [µM] | other results |
| --- | --- | --- | --- | --- | --- |
| FKCRRWQWRMKKLG-NH2 [LfcinB 17–30] | >200 | >200 | 200 | 200 | – |
| RRWQWR-NH2 [LfcinB 20–25, reference compound] | >200 | >200 | >200 | >200 | – |
| CSCC[C@H](NC(=O)[C@H](CCCNC(=N)N)NC(=O)[C@H](Cc1c[nH]c2ccccc12)NC(=O)[C@H](CCC(N)=O)NC(=O)[C@H](Cc1c[nH]c2ccccc12)NC(=O)[C@H](CCCNC(=N)N)NC(=O)[C@H](CCCNC(=N)N)NC(=O)[C@H](C)NC(=O)[C@H](CCCCN)NC(=O)[C@@H](N)Cc1ccccc1)C(=O)N[C@@H](CCCCN)C(=O)N[C@@H](CCCCN)C(=O)N[C@@H](CC(C)C)C(=O)NCC(=O)N[C@@H](C)C(=O)O [[Ala^19]-LfcinB 17–31] | >200 | >200 | – | – | – |
| FKCRRWQWRM-NH2 [LfcinB 17–26] | – | – | – | – | MIC S. aureus ATCC 25923 [1, 10]: 200 µM; MBC S. aureus ATCC 25923 [1, 11]: 200 µM; MIC E. coli ATCC 25922 [2, 10]: 100 µM; MBC E. coli ATCC 25922 [2, 11]: 200 µM |
| CRRWQWRMKKLGA-NH2 [LfcinB 19–31] | >200 | >200 | 100 | 100 | – |
| CSCC[C@H](NC(=O)[C@H](CCCNC(=N)N)NC(=O)[C@H](Cc1c[nH]c2ccccc12)NC(=O)[C@H](CCC(N)=O)NC(=O)[C@H](Cc1c[nH]c2ccccc12)NC(=O)[C@H](CCCNC(=N)N)NC(=O)[C@H](CCCNC(=N)N)NC(=O)[C@H](CS)NC(=O)[C@H](CCCCN)NC(=O)[C@@H](N)Cc1ccccc1)C(=O)N[C@@H](CCCCN)C(=O)N[C@@H](CCCCN)C(=O)N[C@@H](CC(C)C)C(=O)NCC(=O)N[C@@H](C)C(N)=O [LfcinB 17–31, reference compound] | – | – | – | – | MIC S. aureus ATCC 25923 [1, 10]: >200 µM; MBC S. aureus ATCC 25923 [1, 11]: >200 µM; MIC E. coli ATCC 25922 [2, 10]: 200 µM (≈ 399 µg/mL); MBC E. coli ATCC 25922 [2, 11]: >200 µM |
| FKCRRWQWRMK-NH2 [LfcinB 17–27] | >200 | >200 | 200 | 100 | – |
| FKCRRWQWR-NH2 [LfcinB 17–25] | >200 | >200 | 100 | 100 | – |
| FKCRRWQWRMKKL-NH2 [LfcinB 17–29] | – | – | >200 | 200 | – |
| KCRRWQWRMKKLGA [LfcinB 18–31, …, truncated peptide of LfcinB 17–31] | – | – | – | – | MIC S. aureus ATCC 25923 [1, 10]: >200 µM; MBC S. aureus ATCC 25923 [1, 11]: >200 µM; MIC E. coli ATCC 25922 [2, 10]: >200 µM; MBC E. coli ATCC 25922 [2, 11]: >200 µM |
| LfcinB 20–30: literature analogue of LfcinB 20-31 (CVRRAFALECI; lactoferricin B; UniProt P24627 55-65, looked up, fragment) | – | – | – | – | LD99.9 S. aureus 42D [3]: 7.5 µM; LD99.9 E. coli ML35 [4]: 15 µM |
| FKCRRWQWR-Homoserine lactone [subfragment 1, literature peptide …-Homoserine lactone] | – | – | – | – | antibacterial activity against S. aureus [5]: > 50 µM; antibacterial activity against E. coli L361 [6]: 10 µM; antibacterial activity against E. coli O9 [7]: 15 µM |
| (FKARRWQWRMKKLGA)2K-Ahx-C [([Ala^19]-LfcinB 17–31)2] | – | – | – | – | MIC S. aureus ATCC 25923 [1, 10]: 12.5 µM; MBC S. aureus ATCC 25923 [1, 11]: 12.5 µM |
| FKCRRWQWRMKK-NH2 [LfcinB 17–28] | >200 | >200 | 200 | 200 | – |
| RWQWRWQWR [(LfcinB 21–25)Pal] | – | – | – | 12.5 | – |
| RRWQWRMKKLGA [LfcinB 20–31] | >200 | >200 | >200 | 200 | – |
| SKCYQWQRRMRKLGA | – | – | – | – | MIC S. aureus [8]: > 500 µM; MIC E coli [9]: 252 µM |
